Assay results reported in patent publication US8815569B2, “Methods for preserving and/or storing cells having a nitrilase or nitrile hydratase activity” (priority 2003, dated 2014).

Target: T1, E. coli-expressed nitrilase (Alcaligenes faecalis, UniProt P20960)
T1 construct: expressed in transfected cells; host or cells: Escherichia coli TG10 (pDHE1650 pAgro4 pHSG575), whole-cell suspension
Experiment: Nitrilase activity test of the cell suspension after storage with aldehyde
Type: cell-based, Escherichia coli
Description: The Escherichia coli strain (TG10 pDHE1650 pAgro4 pHSG575) was fermented in a 20 l bioreactor. The reactor, containing a 10 l working volume, was inoculated with 200 ml of preliminary culture from shaker flasks. The preliminary culture medium corresponds to the main culture medium.
The fermentation is carried out at a temperature of 37° C. The gassing is regulated between 8-30 l/min, while the rotation speed of the stirrer is regulated at […], in order to maintain a pO2 of not less than 20%. After a fermentation period of 1 h, the culture is induced with IPTG (0.15 mM). 18.5 g of rhamnose feed solution are then added. After the initially introduced quantity of glycerol has been consumed, glycerol is then fed in continuously. After a fermentation period of 44 h, cell suspensions of 50 g DBM/l and 50 to 60 ku/l are obtained. The cells are cooled down to 4° C.
50 μl of cell suspension are pipetted into 880 μl of sodium potassium phosphate buffer (10 mM) and the whole is equilibrated at 30° C. The reaction is started by adding 20 μl of methanolic mandelonitrile solution (12%). After 10 min, the enzyme reaction is stopped by adding 50 μl of 1M HC. The cell mass is centrifuged off and the concentration of mandelic acid in the supernatant is measured by means of HPLC (ODS Hypersil 100*2.0 mm, mobile phase: 75% H3PO4 (14.8 mM)/25% methanol; flow rate: 0.5 ml/min; injection volume: 2 μl; column temperature: 40° C.; detection: 210 nm; mandelic acid retention time: 0.9 min).
14 h after the end of the fermentation, the cell suspension was adjusted to a pH of 6.0, 6.6 or 7.2 with NaOH or H2SO4 and then treated with benzaldehyde. The samples were stored at 4° C. or 22° C. Enzyme activity was determined at 0.6, 3.6 and 6.6 days after the end of the fermentation.
14 h after the end of the fermentation, the cell suspension was adjusted to a pH of 6.0, 6.6. or 7.2 with NaOH or H2SO4 and then treated with 2-chlorobenzaldehyde. The samples were stored at 4° C. or 22° C. The enzyme activity was determined at 0.6, 3.6 and 6.6 days after the end of the fermentation.

[1] = storage at 4° C., pH 6.0, 1 mM aldehyde, storage period 0.6 d
[2] = storage at 4° C., pH 6.0, 1 mM aldehyde, storage period 3.6 d
[3] = storage at 4° C., pH 6.0, 1 mM aldehyde, storage period 6.6 d
[4] = storage at 4° C., pH 6.0, 5 mM aldehyde, storage period 0.6 d
[5] = storage at 4° C., pH 6.0, 5 mM aldehyde, storage period 3.6 d
[6] = storage at 4° C., pH 6.0, 5 mM aldehyde, storage period 6.6 d
[7] = storage at 4° C., pH 6.0, 10 mM aldehyde, storage period 0.6 d
[8] = storage at 4° C., pH 6.0, 10 mM aldehyde, storage period 3.6 d
[9] = storage at 4° C., pH 6.0, 10 mM aldehyde, storage period 6.6 d
[10] = storage at 4° C., pH 6.6, 1 mM aldehyde, storage period 0.6 d
[11] = storage at 4° C., pH 6.6, 1 mM aldehyde, storage period 3.6 d
[12] = storage at 4° C., pH 6.6, 1 mM aldehyde, storage period 6.6 d
[13] = storage at 4° C., pH 6.6, 5 mM aldehyde, storage period 0.6 d
[14] = storage at 4° C., pH 6.6, 5 mM aldehyde, storage period 3.6 d
[15] = storage at 4° C., pH 6.6, 5 mM aldehyde, storage period 6.6 d
[16] = storage at 4° C., pH 6.6, 10 mM aldehyde, storage period 0.6 d
[17] = storage at 4° C., pH 6.6, 10 mM aldehyde, storage period 3.6 d
[18] = storage at 4° C., pH 6.6, 10 mM aldehyde, storage period 6.6 d
[19] = storage at 4° C., pH 7.2, 1 mM aldehyde, storage period 0.6 d
[20] = storage at 4° C., pH 7.2, 1 mM aldehyde, storage period 3.6 d
[21] = storage at 4° C., pH 7.2, 1 mM aldehyde, storage period 6.6 d
[22] = storage at 4° C., pH 7.2, 5 mM aldehyde, storage period 0.6 d
[23] = storage at 4° C., pH 7.2, 5 mM aldehyde, storage period 3.6 d
[24] = storage at 4° C., pH 7.2, 5 mM aldehyde, storage period 6.6 d
[25] = storage at 4° C., pH 7.2, 10 mM aldehyde, storage period 0.6 d
[26] = storage at 4° C., pH 7.2, 10 mM aldehyde, storage period 3.6 d
[27] = storage at 4° C., pH 7.2, 10 mM aldehyde, storage period 6.6 d
[28] = storage at 22° C., pH 6.0, 1 mM aldehyde, storage period 0.6 d
[29] = storage at 22° C., pH 6.0, 1 mM aldehyde, storage period 3.6 d
[30] = storage at 22° C., pH 6.0, 1 mM aldehyde, storage period 6.6 d
[31] = storage at 22° C., pH 6.0, 5 mM aldehyde, storage period 0.6 d
[32] = storage at 22° C., pH 6.0, 5 mM aldehyde, storage period 3.6 d
[33] = storage at 22° C., pH 6.0, 5 mM aldehyde, storage period 6.6 d
[34] = storage at 22° C., pH 6.0, 10 mM aldehyde, storage period 0.6 d
[35] = storage at 22° C., pH 6.0, 10 mM aldehyde, storage period 3.6 d
[36] = storage at 22° C., pH 6.0, 10 mM aldehyde, storage period 6.6 d
[37] = storage at 22° C., pH 6.6, 1 mM aldehyde, storage period 0.6 d
[38] = storage at 22° C., pH 6.6, 1 mM aldehyde, storage period 3.6 d
[39] = storage at 22° C., pH 6.6, 1 mM aldehyde, storage period 6.6 d
[40] = storage at 22° C., pH 6.6, 5 mM aldehyde, storage period 0.6 d
[41] = storage at 22° C., pH 6.6, 5 mM aldehyde, storage period 3.6 d
[42] = storage at 22° C., pH 6.6, 5 mM aldehyde, storage period 6.6 d
[43] = storage at 22° C., pH 6.6, 10 mM aldehyde, storage period 0.6 d
[44] = storage at 22° C., pH 6.6, 10 mM aldehyde, storage period 3.6 d
[45] = storage at 22° C., pH 6.6, 10 mM aldehyde, storage period 6.6 d
[46] = storage at 22° C., pH 7.2, 1 mM aldehyde, storage period 0.6 d
[47] = storage at 22° C., pH 7.2, 1 mM aldehyde, storage period 3.6 d
[48] = storage at 22° C., pH 7.2, 1 mM aldehyde, storage period 6.6 d
[49] = storage at 22° C., pH 7.2, 5 mM aldehyde, storage period 0.6 d
[50] = storage at 22° C., pH 7.2, 5 mM aldehyde, storage period 3.6 d
[51] = storage at 22° C., pH 7.2, 5 mM aldehyde, storage period 6.6 d
[52] = storage at 22° C., pH 7.2, 10 mM aldehyde, storage period 0.6 d
[53] = storage at 22° C., pH 7.2, 10 mM aldehyde, storage period 3.6 d
[54] = storage at 22° C., pH 7.2, 10 mM aldehyde, storage period 6.6 d

T1 sequence (P20960 whole entry Q122E/S243P/E312D/I323T/Q324R/P330Q/H331G/T335K/A336I/P338S/V341I/Q343H/T344P): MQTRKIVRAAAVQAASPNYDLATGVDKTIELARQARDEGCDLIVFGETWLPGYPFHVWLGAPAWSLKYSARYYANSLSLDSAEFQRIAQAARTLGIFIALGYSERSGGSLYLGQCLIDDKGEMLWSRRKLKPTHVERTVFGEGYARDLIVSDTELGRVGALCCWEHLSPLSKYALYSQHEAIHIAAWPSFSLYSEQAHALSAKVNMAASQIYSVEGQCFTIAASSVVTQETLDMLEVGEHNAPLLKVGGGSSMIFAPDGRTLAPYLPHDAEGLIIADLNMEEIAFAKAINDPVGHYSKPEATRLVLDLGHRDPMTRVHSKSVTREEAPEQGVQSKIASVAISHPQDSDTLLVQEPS

SMILES: O=Cc1ccccc1 [benzaldehyde]
- Activity in kU/l [1]: 55.1 kU/l
- Activity in kU/l [2]: 49.9 kU/l
- Activity in kU/l [3]: 48.3 kU/l
- Activity in kU/l [4]: 51.8 kU/l
- Activity in kU/l [5]: 52.3 kU/l
- Activity in kU/l [6]: 53.0 kU/l
- Activity in kU/l [7]: 51.3 kU/l
- Activity in kU/l [8]: 51.5 kU/l
- Activity in kU/l [9]: 50.2 kU/l
- Activity in kU/l [10]: 53.2 kU/l
- Activity in kU/l [11]: 52.3 kU/l
- Activity in kU/l [12]: 52.5 kU/l
- Activity in kU/l [13]: 47.1 kU/l
- Activity in kU/l [14]: 52.0 kU/l
- Activity in kU/l [15]: 55.7 kU/l
- Activity in kU/l [16]: 51.3 kU/l
- Activity in kU/l [17]: 55.5 kU/l
- Activity in kU/l [18]: 51.9 kU/l
- Activity in kU/l [19]: 55.8 kU/l
- Activity in kU/l [20]: 46.8 kU/l
- Activity in kU/l [21]: 47.5 kU/l
- Activity in kU/l [22]: 47.1 kU/l
- Activity in kU/l [23]: 48.3 kU/l
- Activity in kU/l [24]: 50.7 kU/l
- Activity in kU/l [25]: 53.8 kU/l
- Activity in kU/l [26]: 51.2 kU/l
- Activity in kU/l [27]: 49.2 kU/l
- Activity in kU/l [28]: 55.1 kU/l
- Activity in kU/l [29]: 50.6 kU/l
- Activity in kU/l [30]: 51.0 kU/l
- Activity in kU/l [31]: 51.8 kU/l
- Activity in kU/l [32]: 51.5 kU/l
- Activity in kU/l [33]: 54.9 kU/l
- Activity in kU/l [34]: 51.3 kU/l
- Activity in kU/l [35]: 53.0 kU/l
- Activity in kU/l [36]: 49.2 kU/l
- Activity in kU/l [37]: 53.2 kU/l
- Activity in kU/l [38]: 53.0 kU/l
- Activity in kU/l [39]: 53.1 kU/l
- Activity in kU/l [40]: 47.1 kU/l
- Activity in kU/l [41]: 54.3 kU/l
- Activity in kU/l [42]: 58.0 kU/l
- Activity in kU/l [43]: 51.3 kU/l
- Activity in kU/l [44]: 49.4 kU/l
- Activity in kU/l [45]: 55.4 kU/l
- Activity in kU/l [46]: 55.8 kU/l
- Activity in kU/l [47]: 50.4 kU/l
- Activity in kU/l [48]: 48.7 kU/l
- Activity in kU/l [49]: 47.1 kU/l
- Activity in kU/l [50]: 51.7 kU/l
- Activity in kU/l [51]: 52.9 kU/l
- Activity in kU/l [52]: 53.8 kU/l
- Activity in kU/l [53]: 52.7 kU/l
- Activity in kU/l [54]: 51.3 kU/l

SMILES: O=Cc1ccccc1Cl [2-chlorobenzaldehyde]
- Activity in kU/l [1]: 52.4 kU/l
- Activity in kU/l [2]: 53.5 kU/l
- Activity in kU/l [3]: 56.9 kU/l
- Activity in kU/l [4]: 52.5 kU/l
- Activity in kU/l [5]: 55.6 kU/l
- Activity in kU/l [6]: 53.8 kU/l
- Activity in kU/l [7]: 53.5 kU/l
- Activity in kU/l [8]: 55.7 kU/l
- Activity in kU/l [9]: 47.6 kU/l
- Activity in kU/l [10]: 48.8 kU/l
- Activity in kU/l [11]: 55.1 kU/l
- Activity in kU/l [12]: 54.7 kU/l
- Activity in kU/l [13]: 50.6 kU/l
- Activity in kU/l [14]: 56.3 kU/l
- Activity in kU/l [15]: 53.6 kU/l
- Activity in kU/l [16]: 47.4 kU/l
- Activity in kU/l [17]: 55.0 kU/l
- Activity in kU/l [18]: 58.5 kU/l
- Activity in kU/l [19]: 51.3 kU/l
- Activity in kU/l [20]: 48.3 kU/l
- Activity in kU/l [21]: 45.2 kU/l
- Activity in kU/l [22]: 53.3 kU/l
- Activity in kU/l [23]: 51.2 kU/l
- Activity in kU/l [24]: 48.1 kU/l
- Activity in kU/l [25]: 48.3 kU/l
- Activity in kU/l [26]: 51.0 kU/l
- Activity in kU/l [27]: 49.9 kU/l
- Activity in kU/l [28]: 52.4 kU/l
- Activity in kU/l [29]: 53.8 kU/l
- Activity in kU/l [30]: 54.5 kU/l
- Activity in kU/l [31]: 52.5 kU/l
- Activity in kU/l [32]: 55.0 kU/l
- Activity in kU/l [33]: 59.1 kU/l
- Activity in kU/l [34]: 53.5 kU/l
- Activity in kU/l [35]: 55.7 kU/l
- Activity in kU/l [36]: 52.4 kU/l
- Activity in kU/l [37]: 48.8 kU/l
- Activity in kU/l [38]: 55.0 kU/l
- Activity in kU/l [39]: 57.2 kU/l
- Activity in kU/l [40]: 50.6 kU/l
- Activity in kU/l [41]: 56.7 kU/l
- Activity in kU/l [42]: 55.5 kU/l
- Activity in kU/l [43]: 47.4 kU/l
- Activity in kU/l [44]: 56.2 kU/l
- Activity in kU/l [45]: 58.6 kU/l
- Activity in kU/l [46]: 51.3 kU/l
- Activity in kU/l [47]: 52.8 kU/l
- Activity in kU/l [48]: 53.2 kU/l
- Activity in kU/l [49]: 53.3 kU/l
- Activity in kU/l [50]: 51.4 kU/l
- Activity in kU/l [51]: 50.1 kU/l
- Activity in kU/l [52]: 48.3 kU/l
- Activity in kU/l [53]: 52.9 kU/l
- Activity in kU/l [54]: 54.0 kU/l
